Assay results from patent US20180117043A1, “USE OF SRC PROTEIN INHIBITOR IN THE MANUFACTURE OF A MEDICAMENT FOR THE PROPHYLAXIS AND/OR TREATMENT OF ALZHEIMER'S DISEASE” (JenKem Technology Co., Ltd. (Beijing), priority 2015, published 2018).

Tests used:
[1] = tested on: transgenic fruit flies and double transgenic mice expressing Aβ42; details: cited from earlier work; for treatment of Aβ42-induced memory loss: transgenic fruit flies and double transgenic mice expressing Aβ42, WO2012/103282; for curative effect in screening: compounds screened in WO2012/103282
[2] = tested on: primary isolated fetal mouse cerebral cortical neuron; assay: Neuroprotective activity assay against Aβ42 oligomer toxicity, cell viability detected with WST-8; details: 24 h
[3] = 0.01 μM/L drug + Aβ42 10 μmol/L
[4] = 1000 μM/L drug + Aβ42 10 μmol/L
[5] = Aβ42 oligomer 10 μmol/L, compared with model group
[6] = 0.001 μM/L drug + Aβ42 10 μmol/L

## CCN1CCN(Cc2ccc(-c3cc4c(N[C@H](C)c5ccccc5)ncnc4[nH]3)cc2)CC1 [AEE 788]
[1]
  treatment of Aβ42-induced memory loss: effective

## COc1cc2c(Nc3ccc(Cl)c(Cl)c3F)ncnc2cc1OC[C@@H]1C[C@@H]2CN(C)C[C@@H]2C1 [XL647]
[1]
  treatment of Aβ42-induced memory loss: effective

## CC#CC(=O)Nc1ccc2ncnc(Nc3cccc(Br)c3)c2c1 [CL-387785]
[1]
  treatment of Aβ42-induced memory loss: effective

## N#C/C(=C\c1ccc(N2CCOCC2)o1)C(=O)NCCc1c[nH]c2ccccc12 [JKF-027]
[2]; 0.01 μM drug + Aβ42 10 μmol/L
  Mean value of cell viability based on three independent replicates: 46.83%
[2]; [3]
  Cell viability data in the first independent test: 49.59%
  Cell viability data in the second independent test: 45.88%
  Cell viability data in the third independent test: 45.00%
[2]; 0.1 μM drug + Aβ42 10 μmol/L
  Mean value of cell viability based on three independent replicates: 61.39%
[2]; 0.1 μM/L drug + Aβ42 10 μmol/L
  Cell viability data in the first independent test: 77.44%
  Cell viability data in the second independent test: 48.40%
  Cell viability data in the third independent test: 58.33%
[2]; 1.0 μM drug + Aβ42 10 μmol/L
  Mean value of cell viability based on three independent replicates: 65.31%
[2]; 1 μM/L drug + Aβ42 10 μmol/L
  Cell viability data in the first independent test: 61.59%
  Cell viability data in the second independent test: 61.01%
  Cell viability data in the third independent test: 73.33%
[2]; 10 μM drug + Aβ42 10 μmol/L
  Mean value of cell viability based on three independent replicates: 77.28%
[2]; 10 μM/L drug + Aβ42 10 μmol/L
  Cell viability data in the first independent test: 87.60%
  Cell viability data in the second independent test: 69.75%
  Cell viability data in the third independent test: 74.50%
[2]; 100 μM drug + Aβ42 10 μmol/L
  Mean value of cell viability based on three independent replicates: 40.52%
[2]; 100 μM/L drug + Aβ42 10 μmol/L
  Cell viability data in the first independent test: 51.83%
  Cell viability data in the second independent test: 46.89%
  Cell viability data in the third independent test: 22.83%
[2]; 1000 μM drug + Aβ42 10 μmol/L
  Mean value of cell viability based on three independent replicates: 21.89%
[2]; [4]
  Cell viability data in the first independent test: 27.85%
  Cell viability data in the second independent test: 18.66%
  Cell viability data in the third independent test: 19.17%
[2]; [5]
  effective concentration range (anti-toxic effect against Aβ42 oligomer): 0.1 to 10 µmol/L
  optimum anti-toxic concentration: 0.1 to 10 µmol/L
[1]
  curative effect in screening: preferable curative effect
  treatment of Aβ42-induced memory loss: effective

## CCOc1cc2ncc(C#N)c(Nc3ccc(F)c(Cl)c3)c2cc1NC(=O)/C=C/CN(C)C [EKB-569]
[1]
  treatment of Aβ42-induced memory loss: effective

## Cc1nc(Nc2ncc(C(=O)Nc3c(C)cccc3Cl)s2)cc(N2CCN(CCO)CC2)n1 [Compound I, N-(2-chloro-6-methylphenyl)-2-{6-[4-(3-hydroxyethyl)-1-piperazinyl]-2-methyl-4-pyrimidinylamino}-5-thiazolecarboxamide]
[2]; 0.001 μM drug + Aβ42 10 μmol/L
  Mean value of cell viability based on three independent replicates: 46.65%
[2]; [6]
  Cell viability data in the first independent test: 26.98%
  Cell viability data in the second independent test: 54.70%
  Cell viability data in the third independent test: 58.28%
[2]; 0.01 μM drug + Aβ42 10 μmol/L
  Mean value of cell viability based on three independent replicates: 67.99%
[2]; [3]
  Cell viability data in the first independent test: 69.31%
  Cell viability data in the second independent test: 67.22%
  Cell viability data in the third independent test: 67.46%
[2]; 0.1 μM drug + Aβ42 10 μmol/L
  Mean value of cell viability based on three independent replicates: 71.02%
[2]; 0.1 μM/L drug + Aβ42 10 μmol/L
  Cell viability data in the first independent test: 80.78%
  Cell viability data in the second independent test: 64.25%
  Cell viability data in the third independent test: 68.05%
[2]; 1.0 μM drug + Aβ42 10 μmol/L
  Mean value of cell viability based on three independent replicates: 72.44%
[2]; 1 μM/L drug + Aβ42 10 μmol/L
  Cell viability data in the first independent test: 76.90%
  Cell viability data in the second independent test: 65.73%
  Cell viability data in the third independent test: 74.70%
[2]; 10 μM drug + Aβ42 10 μmol/L
  Mean value of cell viability based on three independent replicates: 63.20%
[2]; 10 μM/L drug + Aβ42 10 μmol/L
  Cell viability data in the first independent test: 68.61%
  Cell viability data in the second independent test: 56.51%
  Cell viability data in the third independent test: 64.50%
[2]; 100 μM drug + Aβ42 10 μmol/L
  Mean value of cell viability based on three independent replicates: 73.40%
[2]; 100 μM/L drug + Aβ42 10 μmol/L
  Cell viability data in the first independent test: 74.43%
  Cell viability data in the second independent test: 86.16%
  Cell viability data in the third independent test: 59.62%
[2]; 1000 μM drug + Aβ42 10 μmol/L
  Mean value of cell viability based on three independent replicates: 64.34%
[2]; [4]
  Cell viability data in the first independent test: 76.72%
  Cell viability data in the second independent test: 63.92%
  Cell viability data in the third independent test: 52.37%
[2]; Aβ42 oligomer 10 μmol/L
  dose span of effective concentration range relative to JKF-027: 10^4 times
[2]; [5]
  effective concentration range (anti-toxic effect against Aβ42 oligomer): 0.01 to 1000 µmol/L

## CCOc1cc2ncc(C#N)c(Nc3ccc(OCc4cccc(F)c4)c(Cl)c3)c2cc1NC(=O)/C=C/CN(C)C [HKI-357]
[1]
  treatment of Aβ42-induced memory loss: effective

## N#C/C(=C\c1ccc(-c2cc(C(=O)O)ccc2Cl)o1)C(=O)Nc1ccc(F)cc1 [JKF-006]
[1]
  curative effect in screening: preferable curative effect
  treatment of Aβ42-induced memory loss: effective

## COc1cc2c(Nc3ccc(Br)cc3F)ncnc2cc1OCC1CCN(C)CC1 [ZD-6474]
[1]
  treatment of Aβ42-induced memory loss: effective

## Cc1c(NC(=O)OC[C@@H]2COCCN2)cn2ncnc(Nc3ccc4c(cnn4Cc4cccc(F)c4)c3)c12 [BMS-599626]
[1]
  treatment of Aβ42-induced memory loss: effective

## C=CCNC1=C2C[C@@H](C)C[C@H](OC)[C@H](O)[C@@H](C)/C=C(\C)[C@H](OC(N)=O)[C@@H](OC)/C=C\C=C(/C)C(=O)NC(=CC1=O)C2=O [Compound 17-AAG]
[1]
  treatment of Aβ42-induced memory loss: effective

## CN(C)C/C=C/C(=O)Nc1cc2c(Nc3ccc(F)c(Cl)c3)ncnc2cc1O[C@H]1CCOC1 [BIBW 2992]
[1]
  treatment of Aβ42-induced memory loss: effective

## C=CCNc1c(O)cc2c(O)c1C[C@@H](C)C[C@H](OC)[C@H](O)[C@@H](C)/C=C(\C)[C@H](OC(N)=O)[C@@H](OC)/C=C\C=C(/C)C(=O)N2 [IPI-504]
[1]
  treatment of Aβ42-induced memory loss: effective
